According to patent US20250188069A1, “COMPOUNDS AND METHODS FOR DEGRADING CASEIN KINASE 1 ALPHA” (PIN THERAPEUTICS, INC., priority 2022, published 2025):
Counter-ions that a name gives are not always drawn. Like-named read-outs stand apart in the source and are kept apart here.

How the values were obtained:
Type in all cases: cell-based
CK1α [1] = target: T1, CK1α (Homo sapiens, UniProt P48729+Q96SW2); assay: CK1α degradation, Jess assay in MV-4-11 cells; set-up: CK1α levels were determined in MV-4-11 cells using Jess (Protein Simple); host or cells: MV-4-11; dose or concentration left out as unconfirmed; settings: MV4-11, % reduction of CK1α compared to DMSO, MV-4-11 cells for 16 hours, normalized to β-actin, read-out: CK1α degradation classification
Experimental: (§1) MM.1S and NCCIT cells were obtained from ATCC and grown in RPMI-1640 supplemented with 10% FBS. MV-4-11 cells were obtained from ATCC and grown in IMDM supplemented with 10% FBS. The cells were maintained at 37° C. under 5% CO2.
Compounds of the present disclosure was added to cells (final DMSO concentration of 0.1%) and incubated for 16 hours. CK1α levels were determined in MV-4-11 cells using Jess (Protein Simple). Briefly, whole cell lysates were prepared in lysis buffer (1×RIPA buffer [Thermo, 89900], 2 mM MgCl2 [Sigma, M1028], 0.05% Benzonase [Sigma, E1014], 1× Pierce protease inhibitor tablets EDTA-free [Thermo, A32965]). 6-20 μg of the lysates were analyzed using Jess with antibodies against CK1α (Abcam, ab108296) and β-actin (R&D Systems, MAB8929). Protein levels were normalized to β-actin levels. DC50 values were obtained using four-parameter non-linear regressions using Prism (GraphPad).
The efficacy of CK1α degradation of a part of compounds of the present disclosure was determined by treating MV-4-11 cells at […] (final DMSO concentration of 0.1%) for 16 hours. CK1α levels were determined using Jess and normalized to β-actin levels. The compounds are classified based on amount of CK1α degradation (% reduction of CK1α compared to DMSO) as follows. • A: Degradation is greater than or equal to 75%; • B: Degradation is less than […] & greater than or equal to 50%; • C: Degradation is less than […]; • ND: not determined.

MV-4-11 cells = assay: AML cell viability assay (RealTime-Glo); settings: Homo sapiens, MV4-11, IC50 class, MV-4-11 cells, read-out: Cell viability classification
CK1α [2] = target: T1, CK1α; assay: CK1α degradation, Western blot in MV-4-11 cells; set-up: CK1α levels were determined in MV-4-11 cells using Jess (Protein Simple); host or cells: MV-4-11; settings: % reduction of CK1α compared to DMSO, MV4-11 cells at 1 μM for 4 hours, read-out: CK1α degradation classification
Experimental: as §1
Compounds of the present disclosure was added to cells (final DMSO concentration of 0.1%) and incubated for 4 hours. CK1α levels were determined in MV-4-11 cells using Western blot analysis. Whole cell lysates were prepared in lysis buffer (1×RIPA buffer [Thermo, 89900], 2 mM MgCl2 [Sigma, M1028], 0.05% Benzonase [Sigma, E1014], 1× Pierce protease inhibitor tablets EDTA-free [Thermo, A32965]). […] of the lysates were analyzed using Western blot with antibodies against CK1α (Abcam, ab108296) and β-actin (R&D Systems, MAB8929).
The efficacy of CK1α degradation of other part of compounds of the present disclosure was determined by treating MV4-11 cells at 1 μM (Final DMSO concentration of 0.1%) for 4 hours. Protein levels relative to DMSO are calculated for CK1α. The compounds are classified based on the amount of CK1α degradation (% reduction of CK1α compared to DMSO) as follows. • A: Degradation is greater than or equal to 75%; • B: Degradation is less than 75% & greater than or equal to 50%; • C: Degradation is less than […]; • ND: not determined.

[3] = RealTime-Glo after 44 hrs of treatment (TABLE 1)
[4] = RealTime-Glo after 44 hrs of treatment (TABLE 4)

T1 sequence (P48729 whole entry): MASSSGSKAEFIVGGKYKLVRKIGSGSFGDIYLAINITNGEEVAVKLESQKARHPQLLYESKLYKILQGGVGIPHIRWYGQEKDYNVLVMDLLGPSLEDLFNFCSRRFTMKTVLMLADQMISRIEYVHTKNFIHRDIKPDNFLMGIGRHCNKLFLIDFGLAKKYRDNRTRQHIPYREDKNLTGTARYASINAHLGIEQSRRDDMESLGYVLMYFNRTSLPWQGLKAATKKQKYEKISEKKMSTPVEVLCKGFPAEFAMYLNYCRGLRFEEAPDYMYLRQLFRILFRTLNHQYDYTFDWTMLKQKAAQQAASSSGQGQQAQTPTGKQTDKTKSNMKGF
T1 sequence (Q96SW2 whole entry): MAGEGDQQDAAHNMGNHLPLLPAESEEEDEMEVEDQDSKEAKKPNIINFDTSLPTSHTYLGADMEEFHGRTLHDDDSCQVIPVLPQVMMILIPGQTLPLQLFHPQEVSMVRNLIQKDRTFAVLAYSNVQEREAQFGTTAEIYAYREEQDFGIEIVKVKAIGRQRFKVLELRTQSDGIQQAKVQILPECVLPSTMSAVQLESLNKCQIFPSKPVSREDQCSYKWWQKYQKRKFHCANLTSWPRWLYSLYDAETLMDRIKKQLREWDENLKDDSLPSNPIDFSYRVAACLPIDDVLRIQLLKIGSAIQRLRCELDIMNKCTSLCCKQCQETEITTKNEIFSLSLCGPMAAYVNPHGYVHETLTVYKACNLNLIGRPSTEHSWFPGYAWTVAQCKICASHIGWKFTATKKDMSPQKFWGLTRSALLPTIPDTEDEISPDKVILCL
T1 sequence (Q16531 whole entry partner): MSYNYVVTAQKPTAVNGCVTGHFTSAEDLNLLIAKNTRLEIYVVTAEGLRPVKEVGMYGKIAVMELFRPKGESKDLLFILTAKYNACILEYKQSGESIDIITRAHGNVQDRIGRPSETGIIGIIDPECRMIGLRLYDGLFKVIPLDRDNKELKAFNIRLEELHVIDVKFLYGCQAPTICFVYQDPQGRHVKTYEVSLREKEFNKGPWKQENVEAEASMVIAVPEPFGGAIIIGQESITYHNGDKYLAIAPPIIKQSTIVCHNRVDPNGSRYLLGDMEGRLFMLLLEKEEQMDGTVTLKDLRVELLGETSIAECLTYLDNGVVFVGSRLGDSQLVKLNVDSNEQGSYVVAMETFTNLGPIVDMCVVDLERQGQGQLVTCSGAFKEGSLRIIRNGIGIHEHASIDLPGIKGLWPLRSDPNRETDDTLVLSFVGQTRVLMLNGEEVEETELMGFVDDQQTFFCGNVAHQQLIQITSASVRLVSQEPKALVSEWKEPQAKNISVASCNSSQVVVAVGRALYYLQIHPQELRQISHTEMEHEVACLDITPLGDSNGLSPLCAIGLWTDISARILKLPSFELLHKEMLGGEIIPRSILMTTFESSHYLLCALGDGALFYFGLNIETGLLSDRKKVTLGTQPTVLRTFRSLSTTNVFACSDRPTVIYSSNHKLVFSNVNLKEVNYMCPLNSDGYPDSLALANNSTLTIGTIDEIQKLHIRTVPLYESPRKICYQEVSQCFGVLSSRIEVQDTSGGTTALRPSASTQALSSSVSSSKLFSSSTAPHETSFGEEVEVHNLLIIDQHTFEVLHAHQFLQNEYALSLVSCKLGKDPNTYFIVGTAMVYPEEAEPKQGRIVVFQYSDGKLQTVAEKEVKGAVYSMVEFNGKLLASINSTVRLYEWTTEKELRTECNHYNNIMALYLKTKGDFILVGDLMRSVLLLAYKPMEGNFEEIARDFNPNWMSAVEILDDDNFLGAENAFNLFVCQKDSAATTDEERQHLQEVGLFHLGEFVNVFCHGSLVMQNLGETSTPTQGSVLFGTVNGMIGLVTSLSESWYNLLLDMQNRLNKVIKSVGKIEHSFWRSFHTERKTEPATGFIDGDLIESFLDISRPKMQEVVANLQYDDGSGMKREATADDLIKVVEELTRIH

CCCCCN(c1cccc2c1CN(C1CCC(=O)NC1=O)C2=O)[C@H]1CC[C@H](N)CC1 (some centres unmarked) [Compound 88, 3-(4-(((1r,4r)-4-aminocyclohexyl)(pentyl)amino)-1-oxoisoindolin-2-yl)piperidine-2,6-dione, HCl]
Dmax (CK1α [1]): > 75%
IC50 (MV-4-11 cells; [3]): < 0.1 µM

CCCCCN(c1cccc2c1CN(C1CCC(=O)NC1=O)C2=O)[C@H]1CC[C@@H](CN)CC1 (stereo partly drawn) [Compound 89, 3-(4-(((1S,4S)-4-(aminomethyl)cyclohexyl)(pentyl)amino)-1-oxoisoindolin-2-yl)piperidine-2,6-dione hydrochloride]
Dmax (CK1α [1]): > 75%
IC50 (MV-4-11 cells; [3]): < 0.1 µM

CCCCCN(c1cccc2c1CN(C1CCC(=O)NC1=O)C2=O)[C@H]1CC[C@H](CN)CC1 (stereo partly drawn) [Compound 90, 3-(4-(((1R,4R)-4-(aminomethyl)cyclohexyl)(pentyl)amino)-1-oxoisoindolin-2-yl)piperidine-2,6-dione hydrochloride]
Dmax (CK1α [1]): > 75%
IC50 (MV-4-11 cells; [3]): < 0.1 µM

CCCCN(CC#CCN)c1cccc2c1CN(C1CCC(=O)NC1=O)C2=O (centres unmarked) [Compound 115, 3-(4-((4-aminobut-2-yn-1-yl)(butyl)amino)-1-oxoisoindolin-2-yl)piperidine-2,6-dione]
Dmax (CK1α [1]): 50 to 7500%
IC50 (MV-4-11 cells; [3]): > 1 µM

CC#CCN(CCCCN)c1cccc2c1CN(C1CCC(=O)NC1=O)C2=O (centres unmarked) [Compound 116, 3-(4-((4-aminobutyl)(but-2-yn-1-yl)amino)-1-oxoisoindolin-2-yl)piperidine-2,6-dione]
Dmax (CK1α [1]): > 75%
IC50 (MV-4-11 cells; [3]): < 0.1 µM

N[C@H]1CC[C@H](N(CCCc2ccccc2)c2cccc3c2CN(C2CCC(=O)NC2=O)C3=O)CC1 (some centres unmarked) [Compound 251, 3-(4-(((1r,4r)-4-aminocyclohexyl)(3-phenylpropyl)amino)-1-oxoisoindolin-2-yl)piperidine-2,6-dione hydrochloride]
Dmax (CK1α [1]): > 75%
IC50 (MV-4-11 cells; [3]): < 0.1 µM

CCCCCN(c1cccc2c1CN(C1CCC(=O)NC1=O)C2=O)[C@@H]1CC[C@@H](N)C1 (stereo partly drawn) [Compound 323, 3-(4-(((1R,3R)-3-aminocyclopentyl)(pentyl)amino)-1-oxoisoindolin-2-yl)piperidine-2,6-dione]
Dmax (CK1α [1]): > 75%
IC50 (MV-4-11 cells; [3]): < 0.1 µM

CCCCCN(c1cccc2c1CN(C1CCC(=O)NC1=O)C2=O)[C@@H]1CC[C@H](N)C1 (stereo partly drawn) [Compound 324, 3-(4-(((1R,3S)-3-aminocyclopentyl)(pentyl)amino)-1-oxoisoindolin-2-yl)piperidine-2,6-dione]
Dmax (CK1α [1]): > 75%
IC50 (MV-4-11 cells; [3]): < 0.1 µM

NC[C@H]1CC[C@@H](N(CCCC2CCOCC2)c2cccc3c2CN(C2CCC(=O)NC2=O)C3=O)CC1 (some centres unmarked) [Compound 333, 3-(4-(((1s,4s)-4-(aminomethyl)cyclohexyl)(3-(tetrahydro-2H-pyran-4-yl)propyl)amino)-1-oxoisoindolin-2-yl)piperidine-2,6-dione]
Dmax (CK1α [1]): > 75%
IC50 (MV-4-11 cells; [3]): < 0.1 µM

NC[C@H]1CC[C@@H](N(CCC2CC2)c2cccc3c2CN(C2CCC(=O)NC2=O)C3=O)CC1 (some centres unmarked) [Compound 358, 3-(4-(((1s,4s)-4-(aminomethyl)cyclohexyl)(2-cyclopropylethyl)amino)-1-oxoisoindolin-2-yl)piperidine-2,6-dione]
Dmax (CK1α [1]): > 75%
IC50 (MV-4-11 cells; [3]): < 0.1 µM

O=C1CCC(N2Cc3c(cccc3N(CCC3CC3)[C@H]3C[C@@H](c4nnc[nH]4)C3)C2=O)C(=O)N1 (some centres unmarked) [Compound 603, 3-{4-[(2-cyclopropylethyl)[(1s,3s)-3-(4H-1,2,4-triazol-3-yl)cyclobutyl]amino]-1-oxo-3H-isoindol-2-yl}piperidine-2,6-dione; formate]
Dmax at 1 µM (CK1α [2]): > 75%
IC50 (MV-4-11 cells; [4]): < 0.1 µM

O=C1CCC(N2Cc3c(cccc3N(CCC3CC3)[C@H]3C[C@H](c4nnc[nH]4)C3)C2=O)C(=O)N1 (some centres unmarked) [Compound 604, 3-{4-[(2-cyclopropylethyl)[(1s,3s)-3-(4H-1,2,4-triazol-3-yl)cyclobutyl]amino]-1-oxo-3H-isoindol-2-yl}piperidine-2,6-dione; formate]
Dmax at 1 µM (CK1α [2]): > 75%
IC50 (MV-4-11 cells; [4]): < 0.1 µM

O=C1CCC(N2Cc3c(cccc3N(CCC3CC3)[C@H]3CC[C@H](NCC4(F)CC4)CC3)C2=O)C(=O)N1 (some centres unmarked) [Compound 612, 3-{4-[(2-cyclopropylethyl)[(1r,4r)-4-{[(1-fluorocyclopropyl)methyl]amino}cyclohexyl]amino]-1-oxo-3H-isoindol-2-yl}piperidine-2,6-dione]
Dmax at 1 µM (CK1α [2]): > 75%
IC50 (MV-4-11 cells; [4]): < 0.1 µM

O=C1CCC(N2Cc3c(cccc3N(CCC3CC3)[C@H]3CC[C@H](NCC4(F)CCC4)CC3)C2=O)C(=O)N1 (some centres unmarked) [Compound 613, 3-{4-[(2-cyclopropylethyl)[(1r,4r)-4-{[(1-fluorocyclobutyl)methyl]amino}cyclohexyl]amino]-1-oxo-3H-isoindol-2-yl}piperidine-2,6-dione]
Dmax at 1 µM (CK1α [2]): > 75%
IC50 (MV-4-11 cells; [4]): < 0.1 µM

CS(=O)(=O)C1(CN[C@H]2CC[C@H](N(CCC3CC3)c3cccc4c3CN(C3CCC(=O)NC3=O)C4=O)CC2)CC1 (some centres unmarked) [Compound 615, 3-{4-[(2-cyclopropylethyl)[(1r,4r)-4-{[(1-methanesulfonylcyclopropyl)methyl]amino}cyclohexyl]amino]-1-oxo-3H-isoindol-2-yl}piperidine-2,6-dione; trifluoroacetate]
Dmax at 1 µM (CK1α [2]): > 75%
IC50 (MV-4-11 cells; [4]): < 0.1 µM

O=C1CCC(N2Cc3c(cccc3N(CCC3CC3)[C@H]3CC[C@H](NCC4(F)COC4)CC3)C2=O)C(=O)N1 (some centres unmarked) [Compound 616, 3-{4-[(2-cyclopropylethyl)[(1r,4r)-4-{[(3-fluorooxetan-3-yl)methyl]amino}cyclohexyl]amino]-1-oxo-3H-isoindol-2-yl}piperidine-2,6-dione; trifluoro acetate]
Dmax at 1 µM (CK1α [2]): > 75%
IC50 (MV-4-11 cells; [4]): < 0.1 µM

C[C@]1(N)CC[C@H](N(CCC2CC2)c2cccc3c2CN(C2CCC(=O)NC2=O)C3=O)CC1 (some centres unmarked) [Compound 634, 3-{4-[(2-cyclopropylethyl)[(1r,4r)-4-amino-4-methylcyclohexyl]amino]-1-oxo-3H-isoindol-2-yl}piperidine-2,6-dione]
Dmax at 1 µM (CK1α [2]): 50 to 75%
IC50 (MV-4-11 cells; [4]): 0.1 to 1 µM

C[C@]1(N)CC[C@@H](N(CCC2CC2)c2cccc3c2CN(C2CCC(=O)NC2=O)C3=O)CC1 (some centres unmarked) [Compound 635, 3-{4-[(2-cyclopropylethyl)[(1s,4s)-4-amino-4-methylcyclohexyl]amino]-1-oxo-3H-isoindol-2-yl}piperidine-2,6-dione]
Dmax at 1 µM (CK1α [2]): > 75%
IC50 (MV-4-11 cells; [4]): < 0.1 µM

O=C1CCC(N2Cc3c(cccc3N(CCCCC(F)(F)F)[C@H]3CC[C@H](NCCC(F)(F)F)CC3)C2=O)C(=O)N1 (some centres unmarked) [Compound 636, 3-(1-oxo-4-{[(1r,4r)-4-[(3,3,3-trifluoropropyl)amino]cyclohexyl](5,5,5-trifluoropentyl)amino}-3H-isoindol-2-yl)piperidine-2,6-dione; trifluoroacetate]
Dmax at 1 µM (CK1α [2]): > 75%
IC50 (MV-4-11 cells; [4]): 0.1 to 1 µM
